According to patent US20260042755A1, “GPR6 INVERSE AGONISTS” (MapLight Therapeutics, Inc., priority 2022, published 2026):
pIC50: −log10 of the molar value.

Legend:
GPR3 = target: T1, GPR3 (Homo sapiens, UniProt P46089); assay: GPR3 antagonist functional cAMP assay (LANCE Ultra cAMP TR-FRET, CHO cells stably expressing GPR3); format: cell-based
T1 construct: expressed in transfected cells; host or cells: CHO cells
Method in brief: (§1)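 We measure cAMP by TR-FRET (665 nm) in cells held in glucose-containing Krebs-Ringer buffer with BSA and a PDE inhibitor, after a 45 min, 37 °C compound incubation. IC50s derive from a four-parameter logistic fit.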

GPR6 = target: T2, GPR6 (Homo sapiens, UniProt P46095); assay: GPR6 antagonist functional cAMP assay (LANCE Ultra cAMP TR-FRET, CHO cells stably expressing GPR6); format: cell-based
T2 construct: expressed in transfected cells; host or cells: CHO cells
T2 sequence (P46095 whole entry): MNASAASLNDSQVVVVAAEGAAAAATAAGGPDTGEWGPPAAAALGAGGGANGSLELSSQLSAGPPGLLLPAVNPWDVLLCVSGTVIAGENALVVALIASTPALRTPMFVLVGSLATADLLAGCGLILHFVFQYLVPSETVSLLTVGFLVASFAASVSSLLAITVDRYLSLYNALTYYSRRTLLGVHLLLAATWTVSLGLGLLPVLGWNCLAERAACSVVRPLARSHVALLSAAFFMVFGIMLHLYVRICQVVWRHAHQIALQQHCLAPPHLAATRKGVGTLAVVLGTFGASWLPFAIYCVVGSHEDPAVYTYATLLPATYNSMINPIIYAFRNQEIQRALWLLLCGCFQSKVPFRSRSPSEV
Method in brief: as §1

[1] = CHO cells stably expressing GPR3, cAMP assay (Example 24)
[2] = CHO cells stably expressing GPR6, cAMP assay (Example 24)

T1 sequence (P46089 whole entry, species assumed): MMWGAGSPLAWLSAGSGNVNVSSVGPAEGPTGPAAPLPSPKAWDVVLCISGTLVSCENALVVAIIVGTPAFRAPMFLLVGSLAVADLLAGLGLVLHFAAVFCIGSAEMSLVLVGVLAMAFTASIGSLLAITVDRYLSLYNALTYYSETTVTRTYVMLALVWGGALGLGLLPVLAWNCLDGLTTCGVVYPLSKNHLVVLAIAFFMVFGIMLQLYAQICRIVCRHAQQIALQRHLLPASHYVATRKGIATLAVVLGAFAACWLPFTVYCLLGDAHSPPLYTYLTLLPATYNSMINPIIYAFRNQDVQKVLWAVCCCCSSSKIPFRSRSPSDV

Row | Structure (SMILES) | pIC50 (GPR3; procedure of Example 24) | pIC50 (GPR6; procedure of Example 24) | further results
1 | CCN1CCc2nc(N3CCC(Oc4ccc(F)cc4F)CC3)c(-c3cn[nH]c3)nc2C1 [Compound 170, 4-(2,4-difluorophenoxy)-1-[6-ethyl-3-(1H-pyrazol-4-yl)-5H,6H,7H,8H-pyrido[3,4-b]pyrazin-2-yl]piperidine] | – | – | pIC50 (GPR3; [1]): 4.52 to 6.00; pIC50 (GPR6; [2]): 6.00 to 7.00
2 | CC(=O)N1CCc2nc(N3CCC4(CC3)CC4c3ccc(F)cc3F)c(-c3cnn(C)c3)nc2C1 (centres unmarked) [Compound 660, 1-(2-(1-(2,4-difluorophenyl)-6-azaspiro[2.5]octan-6-yl)-3-(1-methyl-1H-pyrazol-4-yl)-7,8-dihydropyrido[3,4-b]pyrazin-6(5H)-yl)ethan-1-one] | 4.52 to 6.00 | 4.52 to 6.00 | –
3 | OCCNc1cc2nc(-c3cnn(CF)c3)c(N3CCN(Cc4ccc(F)cc4F)CC3)nc2cn1 [Compound 759, 2-(3-{4-[(2,4-difluorophenyl)methyl]-1-piperazinyl}-2-[1-(fluoromethyl)-4-pyrazolyl]-1,4,6-triaza-7-naphthylamino)ethanol] | 4.52 to 6.00 | 6.00 to 7.00 | –
4 | CCn1cc(-c2nc3c(nc2N2CCC(Oc4ccc(F)cc4F)CC2)CCN(C(=O)COC)C3)cn1 [Compound 275, 1-{2-[4-(2,4-difluorophenoxy)piperidin-1-yl]-3-(1-ethyl-1H-pyrazol-4-yl)-5H,6H,7H,8H-pyrido[3,4-b]pyrazin-6-yl}-2-methoxyethan-1-one] | 6.00 to 7.00 | > 7.00 | –
5 | CC(=O)N1CCc2nc(N3CCN(Cc4cc(C#N)ccc4F)CC3)c(-c3cnn(C)c3)nc2C1 [Compound 357, 3-({4-[6-acetyl-3-(1-methyl-1H-pyrazol-4-yl)-5H,6H,7H,8H-pyrido[3,4-b]pyrazin-2-yl]piperazin-1-yl}methyl)-4-fluorobenzonitrile] | 4.52 to 6.00 | 4.52 to 6.00 | –
6 | CC(=O)N1CCc2nc(N3CCN(Cc4cccs4)CC3)c(-c3cnn(C)c3)nc2C1 [Compound 515, 1-[3-(1-methyl-4-pyrazolyl)-2-(4-thenyl-1-piperazinyl)-5,6,7,8-tetrahydro-1,4,6-triaza-6-naphthyl]-1-ethanone] | – | – | pIC50 (GPR3; CHO cells stably expressing GPR3, cAMP assay): 4.52 to 6.00; pIC50 (GPR6; CHO cells stably expressing GPR6, cAMP assay): 4.52 to 6.00
7 | CC(C)(O)[C@@](C)(O)c1cc2nc(-c3cnn(C4CC4)c3)c(N3CCN(Cc4ccccc4F)CC3)nc2cn1 (single isomer, unassigned) [Compound 776] | 4.52 to 6.00 | 6.00 to 7.00 | –
8 | CC(C)(O)[C@H](O)c1cc2nc(N3CCC(=Cc4ccc(F)cc4F)CC3)c(-c3cnn(C(F)F)c3)nc2cn1 (single isomer, unassigned) [Compound 779] | 4.52 to 6.00 | > 7.00 | –
9 | CC(=O)N1CCc2nc(N3CCN(Cc4cccc(F)c4)CC3)c(-c3cnn(C)c3)nc2C1 [Compound 256, 1-(2-{4-[(3-fluorophenyl)methyl]piperazin-1-yl}-3-(1-methyl-1H-pyrazol-4-yl)-5H,6H,7H,8H-pyrido[3,4-b]pyrazin-6-yl)ethan-1-one] | – | – | pIC50 (GPR3; [1]): 4.52 to 6.00; pIC50 (GPR6; [2]): 4.52 to 6.00
10 | Cn1cc(-c2nc3cnc([C@H](O)C(C)(C)O)cc3nc2N2CCN(Cc3ccc(F)cc3F)CC2)cn1 (single isomer, unassigned) [Compound 262] | – | – | pIC50 (GPR3; [1]): 4.52 to 6.00; pIC50 (GPR6; [2]): 6.00 to 7.00

The next lines start with results.

Row | pIC50 (GPR3; procedure of Example 24) | pIC50 (GPR6; procedure of Example 24) | Structure (SMILES) | further results
11 | 4.52 to 6.00 | 6.00 to 7.00 | CC(C)(O)[C@](C)(O)c1cc2nc(N3CCC(Oc4ccc(F)cc4F)CC3)c(-c3cnn(CF)c3)nc2cn1 (single isomer, unassigned) [Compound 677] | –
12 | 4.52 to 6.00 | 6.00 to 7.00 | CC(C)(O)C(C)(O)c1cc2nc(N3CCC(Oc4ccc(F)cc4F)CC3)c(-c3cnn(C(F)F)c3)nc2cn1 (centres unmarked) [Compound 635, 2-{3-[1-(difluoromethyl)-4-pyrazolyl]-2-[4-(2,4-difluorophenoxy)-1-piperidyl]-1,4,6-triaza-7-naphthyl}-3-methyl-2,3-butanediol] | –
13 | 4.52 to 6.00 | 6.00 to 7.00 | Cn1cc(-c2nc3cnc(C4CNC(=O)O4)cc3nc2N2CCC(Oc3ccc(F)cc3F)CC2)cn1 (centres unmarked) [Compound 371, 5-(2-(4-(2,4-difluorophenoxy)piperidin-1-yl)-3-(1-methyl-1H-pyrazol-4-yl)pyrido[3,4-b]pyrazin-7-yl)oxazolidin-2-one] | –
